Test results reported in ChEMBL document CHEMBL5137027, “Discovery of quinazoline derivatives CZw-124 as a pan-TRK inhibitor with potent anticancer effects in vitro and in vivo” (Eur J Med Chem, 2022).
Values belong to the compound of their own block, whether it stands above or below them.

Assays:
[1] = Metabolic stability in human liver microsomes assessed as compound remaining at 100 uM incubated for 60 mins under shaking condition in absence of NADPH by LC-MS/MS analysis; format: ADME, Microsome; details: read-out: Stability
[2] = Metabolic stability in human microsomes assessed as intrinsic clearance at 100 uM incubated for 60 mins under shaking condition in presence of NADPH by LC-MS/MS analysis; format: ADME, Microsome; details: read-out: CLH
[3] = Metabolic stability in human liver microsomes assessed as half life at 100 uM incubated for 60 mins under shaking condition in presence of NADPH by LC-MS/MS analysis; format: ADME, Microsome
[4] = Metabolic stability in human liver microsomes assessed as compound remaining at 100 uM incubated for 60 mins under shaking condition in presence of NADPH by LC-MS/MS analysis; format: ADME, Microsome; details: read-out: Stability
[5] = system: MCF7; assay: Antiproliferative activity against human MCF7 cells assessed as inhibition of cell growth incubated for 72 hrs by CCK8 assay; format: functional, cell-based; details: MCF7, 72 h
[6] = system: THLE-2; assay: Antiproliferative activity against human THLE-2 cells assessed as inhibition of cell growth incubated for 72 hrs by CCK8 assay; format: functional, cell-based; details: THLE-2, 72 h
[7] = target: High affinity nerve growth factor receptor (Homo sapiens, UniProt P04629); assay: Inhibition of […] human TRKA (436 to 790 residues) expressed in baculovirus expression system using TK as substrate measured after 30 mins in presence of ATP by HTRF assay
[8] = system: KM12; assay: Antiproliferative activity against human KM12 cells assessed as inhibition of cell growth incubated for 72 hrs by CCK8 assay; format: functional, cell-based; details: KM12, 72 h
[9] = system: A549; assay: Antiproliferative activity against human A549 cells assessed as inhibition of cell growth incubated for 72 hrs by CCK8 assay; format: functional, cell-based; details: A549, 72 h
[10] = system: BaF3; assay: Antiproliferative activity against mouse BaF3 cells harboring TRKA G595R mutant assessed as inhibition of cell growth incubated for 72 hrs by CCK8 assay; format: functional, cell-based; details: BaF3, 72 h
[11] = target: High affinity nerve growth factor receptor (Homo sapiens, UniProt P04629, G595R); assay: Inhibition of TRKA G595R mutant (unknown origin)
[12] = system: BaF3; assay: Antiproliferative activity against mouse BaF3 cells harboring TRKA F589L mutant assessed as inhibition of cell growth incubated for 72 hrs by CCK8 assay; format: functional, cell-based; details: BaF3, 72 h
[13] = system: BaF3; assay: Antiproliferative activity against mouse BaF3 cells harboring TRKA G667C mutant assessed as inhibition of cell growth incubated for 72 hrs by CCK8 assay; format: functional, cell-based; details: BaF3, 72 h
[14] = Toxicity in nude BALB/c mouse xenografted with human KM12 cells assessed as changes in body weight at 40 mg/kg, po qd measured every 3 days for 14 days; format: organism-based; details: in vivo, 336 h, time 14 day
[15] = system: KM12; assay: Antitumor activity against human KM12 cells xenografted in nude BALB/c mouse assessed as tumor growth inhibition at 40 mg/kg, po qd measured every 3 days for 14 days; format: functional; details: KM12, 336 h, time 14 day, read-out: TGI

Chain of High affinity nerve growth factor receptor (Homo sapiens, UniProt P04629) (P04629 whole entry, the tested form may be a part): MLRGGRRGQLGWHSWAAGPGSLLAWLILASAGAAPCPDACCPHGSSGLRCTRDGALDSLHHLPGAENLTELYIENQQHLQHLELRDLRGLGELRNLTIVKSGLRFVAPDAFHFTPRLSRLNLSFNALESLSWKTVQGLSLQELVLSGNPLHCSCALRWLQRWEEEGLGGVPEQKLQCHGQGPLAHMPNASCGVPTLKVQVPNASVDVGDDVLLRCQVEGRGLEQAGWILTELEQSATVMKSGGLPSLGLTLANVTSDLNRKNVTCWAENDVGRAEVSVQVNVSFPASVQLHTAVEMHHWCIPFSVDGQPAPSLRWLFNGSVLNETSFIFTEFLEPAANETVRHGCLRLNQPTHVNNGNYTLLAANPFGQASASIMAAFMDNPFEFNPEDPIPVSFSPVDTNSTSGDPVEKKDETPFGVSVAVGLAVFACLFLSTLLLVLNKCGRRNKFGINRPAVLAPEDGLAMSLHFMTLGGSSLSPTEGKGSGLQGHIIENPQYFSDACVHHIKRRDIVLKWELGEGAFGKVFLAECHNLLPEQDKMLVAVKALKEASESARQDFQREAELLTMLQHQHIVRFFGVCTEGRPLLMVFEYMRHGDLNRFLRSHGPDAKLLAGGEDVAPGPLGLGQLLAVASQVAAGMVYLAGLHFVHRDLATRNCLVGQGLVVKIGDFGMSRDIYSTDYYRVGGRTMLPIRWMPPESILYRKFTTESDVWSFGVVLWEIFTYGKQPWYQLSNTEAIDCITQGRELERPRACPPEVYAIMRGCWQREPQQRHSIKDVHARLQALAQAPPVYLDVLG
Chain of High affinity nerve growth factor receptor (Homo sapiens, UniProt P04629, G595R) (P04629 33-796 G595R limits assumed): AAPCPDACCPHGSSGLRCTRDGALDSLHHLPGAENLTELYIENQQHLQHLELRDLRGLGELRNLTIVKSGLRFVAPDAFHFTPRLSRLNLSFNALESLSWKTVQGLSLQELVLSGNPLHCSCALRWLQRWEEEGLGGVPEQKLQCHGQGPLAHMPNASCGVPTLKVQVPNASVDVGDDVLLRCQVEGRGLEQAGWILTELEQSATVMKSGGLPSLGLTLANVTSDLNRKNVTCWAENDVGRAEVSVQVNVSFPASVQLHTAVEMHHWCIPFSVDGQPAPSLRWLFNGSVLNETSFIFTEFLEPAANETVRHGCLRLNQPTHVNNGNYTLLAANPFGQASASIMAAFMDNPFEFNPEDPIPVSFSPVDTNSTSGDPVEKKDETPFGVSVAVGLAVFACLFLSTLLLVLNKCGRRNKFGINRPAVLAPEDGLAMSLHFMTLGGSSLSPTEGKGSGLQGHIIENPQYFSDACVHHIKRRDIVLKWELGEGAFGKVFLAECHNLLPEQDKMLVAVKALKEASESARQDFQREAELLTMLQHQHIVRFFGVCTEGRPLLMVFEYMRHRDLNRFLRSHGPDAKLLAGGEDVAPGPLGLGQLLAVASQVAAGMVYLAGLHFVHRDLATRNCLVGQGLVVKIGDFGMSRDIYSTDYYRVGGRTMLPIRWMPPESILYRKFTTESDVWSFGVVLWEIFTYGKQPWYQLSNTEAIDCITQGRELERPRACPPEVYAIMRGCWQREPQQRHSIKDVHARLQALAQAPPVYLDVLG

remaining at 1 h, 100 µM [1]: 99.5%
microsomal CLint at 100 µM [2]: 43.5 µL/min/mg
half-life at 100 µM [3]: 31.9 min
remaining at 1 h, 100 µM [4]: 28.1%
Structure (SMILES): Cc1cc(Nc2nc(NCc3ccc(F)cc3F)nc3cc(Cl)ccc23)n[nH]1

IC50 [5]: 9100 nM
IC50 [7]: 17 nM
IC50 [9]: 19000 nM
IC50 [10]: 1100 nM
Structure (SMILES): Fc1ccc(CNc2nc(Nc3cc(C4CC4)[nH]n3)c3ccc(C(F)(F)F)cc3n2)c(F)c1
IC50 [6]: > 100000 nM
IC50 [8]: 28 nM

IC50 [7]: 44 nM
Structure (SMILES): Cc1cc(Nc2nc(NCc3ccc(F)cc3F)nc3ccc(F)cc23)n[nH]1

IC50 [11]: 3000 nM
Structure (SMILES): Cc1cc(C(=O)NC(C)(C)C)cc(C#Cc2ccc3c4c(oc3c2)C(C)(C)c2cc(NS(C)(=O)=O)ccc2C4=O)n1

IC50 [7]: 160 nM
Structure (SMILES): Cc1cc(Nc2nc(NCc3c(F)cccc3F)nc3ccccc23)n[nH]1

IC50 [12]: 20 nM
IC50 [13]: 130 nM
IC50 [10]: 59 nM
Structure (SMILES): CC(C)Oc1cc(Nc2nc(N[C@@H](C)c3ccc(F)cn3)ncc2Cl)n[nH]1
IC50 [8]: 21 nM

remaining at 1 h, 100 µM [1]: 98.1%
microsomal CLint at 100 µM [2]: 54.3 µL/min/mg
half-life at 100 µM [3]: 25.5 min
remaining at 1 h, 100 µM [4]: 20.2%
Structure (SMILES): Cc1ccc2c(Nc3cc(C)[nH]n3)nc(NCc3ccc(F)cc3F)nc2c1

IC50 [7]: 68 nM
Structure (SMILES): Fc1ccc(CNc2nc(Nc3cc(-c4ccccc4)[nH]n3)c3ccccc3n2)c(F)c1

IC50 [7]: 380 nM
Structure (SMILES): Cc1cc(Nc2nc(NCc3ccc(Cl)cc3)nc3ccccc23)n[nH]1

IC50 [7]: 57 nM
remaining at 1 h, 100 µM [1]: 98.3%
microsomal CLint at 100 µM [2]: 27.2 µL/min/mg
half-life at 100 µM [3]: 50.9 min
remaining at 1 h, 100 µM [4]: 43.4%
Structure (SMILES): Cc1cc(Nc2nc(NCc3ccc(F)cc3F)nc3cc(C(F)(F)F)ccc23)n[nH]1

IC50 [7]: 1400 nM
Structure (SMILES): Cc1cc(Nc2nc(NCc3ccc(C(F)(F)F)cc3)nc3ccccc23)n[nH]1

IC50 [7]: 7.5 nM
Structure (SMILES): Cc1cc(Nc2nc(NCc3cc(F)ccc3F)nc3ccccc23)n[nH]1

IC50 [5]: > 100000 nM
IC50 [12]: 260 nM
IC50 [13]: 850 nM
IC50 [9]: > 100000 nM
IC50 [10]: 2200 nM
Structure (SMILES): O=C(Nc1cnn2ccc(N3CCC[C@H]3c3cc(F)ccc3F)nc12)N1CC[C@@H](O)C1
Activity [14]: Non-Toxic
inhibition in vivo at 40 mg/kg [15]: 78%
IC50 [6]: > 100000 nM
IC50 [8]: 7.1 nM

IC50 [7]: 180 nM
Structure (SMILES): Cc1cc(Nc2nc(NCc3ccc(Br)cc3)nc3ccccc23)n[nH]1

IC50 [7]: 110 nM
Structure (SMILES): Cc1ccc(CNc2nc(Nc3cc(C)[nH]n3)c3ccccc3n2)cc1

IC50 [7]: 350 nM
Structure (SMILES): Cc1cc(Nc2nc(N3CCOCC3)nc3ccc(Cl)cc23)n[nH]1

IC50 [7]: 150 nM
Structure (SMILES): Fc1ccc(CNc2nc(Nc3cc(C4CC4)[nH]n3)c3ccc(Br)cc3n2)c(F)c1

IC50 [7]: 20 nM
Structure (SMILES): Cc1cc(Nc2nc(NCc3ccc(F)cc3)nc3ccccc23)n[nH]1

IC50 [7]: 4.7 nM
remaining at 1 h, 100 µM [1]: 104%
microsomal CLint at 100 µM [2]: 53.7 µL/min/mg
half-life at 100 µM [3]: 25.8 min
remaining at 1 h, 100 µM [4]: 19.3%
Structure (SMILES): Fc1ccc(CNc2nc(Nc3cc(C4CC4)[nH]n3)c3ccccc3n2)c(F)c1

IC50 [12]: 8.2 nM
IC50 [10]: 18 nM
Structure (SMILES): C[C@@H]1CCc2ncc(F)cc2[C@H]2CCCN2c2ccn3ncc(c3n2)C(=O)N1 [SELITRECTINIB]
IC50 [8]: 2.8 nM
